Read-outs that look alike come from different tables or passages of the source.

Data set [1] is described as follows: pKa of unformulated amine lipid by TNS fluorescence. The format is physicochemical. The method in brief:
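Unformulated amine lipid was diluted from ethanol stock to approx. 100 μM in 0.1 M sodium phosphate buffers spanning pH 4.5–9.0 with TNS. Fluorescence read at ex 321/em 448 nm; normalized data fitted sigmoidally to give pKa.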

In the next data set the test system is rat TTR gene. Put plainly: In vivo editing of TTR in rat liver after LNP delivery (NGS, % editing). Also on record: species or system rat (Sprague-Dawley). The following applies: for Mean % editing in rat liver: NGS, dose 0.03 mpk, LNP with G000534 sgRNA and Cas9 mRNA 1:2 w/w, 3% C13 Ether (Compound 53: 3% PEG2K-DMG), N=5 (Compound 33: N=4). The method, boiled down: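 Four-component LNPs (ionizable amine lipid, DSPC, cholesterol, PEG lipid) carried Cas9 mRNA and a chemically modified sgRNA against rat TTR, made by impinging jet mixing at an N:P near 6. They were injected into the lateral tail vein of female Sprague-Dawley rats. Liver genomic DNA collected at 6 or 7 days was amplicon-sequenced on Illumina MiSeq to calculate percent indels.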

Where [2] appears, read: sodium phosphate buffer, additional ionizable lipids (53-61), unformulated amine lipid, TNS, read-out: Lipid pKa.
Setting [3] is: Experiment 2, 0.1 mpk, LNP with PEG2K-DMG.
Setting [4] is: Experiment 1, 0.1 mpk, LNP with PEG2K-DMG.
Where [5] appears, read: Experiment 13, 0.03 mpk, LNP with PEG2K-DMG.

In the case of `CCCCC/C=C\C/C=C\CCCCCCCC(=O)OCC(COC(=O)CCCCCC(=O)OC(CCCCCCCC)CCCCCCCC)COC(=O)OCCCN(CC)CC` (stereo not drawn) [Compound 57], the pKa in data set [1] (setting [2]) is 6.1. The Mean % editing with rat TTR gene (setting [3]) worked out at 46.7%; in the data set with rat TTR gene (Experiment 3, 0.1 mpk, LNP with PEG2K-DMG) it was 39.5%.
As for `CCCCC/C=C\C/C=C\CCCCCCCC(=O)OCC(COC(=O)CCCC(=O)OC(CCCCCCCC)CCCCCCCC)COC(=O)NCCN(CC)CC` (stereo not drawn) [Compound 58], the pKa in data set [1] (setting [2]) came to 6.8. For the same compound, the Mean % editing in the data set with rat TTR gene (setting [4]) was 44.7%; in the data set on rat TTR gene (setting [3]), 60.4%; with rat TTR gene (Experiment 10, 0.1 mpk, LNP with PEG2K-DMG) it was 56.5%.
For the compound `CCCCC/C=C\C/C=C\CCCCCCCC(=O)OCC(COC(=O)CCCCCC(=O)OC(CCCCCCCC)CCCCCCCC)COC(=O)NCCN(CC)CC` (stereo not drawn) [Compound 59], in data set [1] (setting [2]), the pKa is 6.8. The Mean % editing in the data set on rat TTR gene (setting [4]) is 36.7%; in the data set with rat TTR gene (setting [3]), 53.4%.
`CCCCCCCCC(CCCCCCCC)OC(=O)CCCCCCC(=O)OCC(COC(=O)CCCCCCC(=O)OC(CCCCCCCC)CCCCCCCC)COC(=O)OCCCN(CC)CC` [Compound 60]: the pKa in data set [1] (setting [2]) is 6.1. Also, the Mean % editing is listed as 8.1% in the data set on rat TTR gene (setting [5]); 10.1% in the data set with rat TTR gene (Table 6, 0.03 mpk, PEG lipid C13 Ether); 6.4% in the data set with rat TTR gene (Table 6, 0.03 mpk, PEG lipid C14 Ether); 12.0% in the data set with rat TTR gene (Table 6, 0.03 mpk, PEG lipid PEG2K-DMG).
Consider `CCCCCCCCC(CCCCCCCC)OC(=O)CCCCCCC(=O)OCC(COC(=O)CCCCCCC(=O)OC(CCCCCCCC)CCCCCCCC)COC(=O)NCCCN(CC)CC` [Compound 61], for which, in data set [1] (setting [2]), the pKa worked out at 7.4. In the data set with rat TTR gene (setting [5]), the Mean % editing was found to be 0.2%.
Regarding `CCCCCCCCC(CCCCCCCC)OC(=O)CCCCCC(=O)OCC(COC(=O)CCCCCC(=O)OC(CCCCCCCC)CCCCCCCC)COC(=O)OCCCN1CCCC1` [Compound 64, 7,7′-di(heptadecan-9-yl) O′1,O1-(2-((((3-(pyrrolidin-1-yl)propoxy)carbonyl)oxy)methyl)propane-1,3-diyl) di(heptanedioate)], the pKa in data set [1] (read-out: pKa) was 6.4. Moreover, the “Mean % editing in rat liver” value with rat TTR gene worked out at 2.0%.
Taken in the same sequence, the figures for `CCCCCCCCC(CCCCCCCC)OC(=O)CCCCCCC(=O)OCC(COC(=O)CCCCCCC(=O)OC(CCCCCCCC)CCCCCCCC)COC(=O)OCCCN1CCCC1` [Compound 65, 8,8′-di(heptadecan-9-yl) O′1,O1-(2-((((3-(pyrrolidin-1-yl)propoxy)carbonyl)oxy)methyl)propane-1,3-diyl) di(octanedioate)] were 6.4 and 4.5%.
With `CCCCCCCCC(CCCCCCCC)OC(=O)CCCCCCC(=O)OCC(CC)(COC(=O)CCCCCCC(=O)OC(CCCCCCCC)CCCCCCCC)COC(=O)NCCN(CC)CC` [Compound 66, O′1,O1-(2-((((2-(diethylamino)ethyl)carbamoyl)oxy)methyl)-2-ethylpropane-1,3-diyl) 8,8′-di(heptadecan-9-yl) di(octanedioate)], in data set [1] (read-out: pKa), the pKa is 6.1. In the data set on rat TTR gene, the “Mean % editing in rat liver” value is on record as 9.5%.
The like results for `CCCCCCCCC(CCCCCCCC)OC(=O)CCCCCCC(=O)OCC(CC)(COC(=O)CCCCCCC(=O)OC(CCCCCCCC)CCCCCCCC)COC(=O)OCCCN1CCCC1` [Compound 67, O′1,O1-(2-ethyl-2-((((3-(pyrrolidin-1-yl)propoxy)carbonyl)oxy)methyl)propane-1,3-diyl) 8,8′-di(heptadecan-9-yl) di(octanedioate)] were, in that order, 6.2 and 1.6%.
For the compound `CCCCCCCCC(CCCCCCCC)OC(=O)CCCCC(=O)OCC(COC(=O)CCCCC(=O)OC(CCCCCCCC)CCCCCCCC)COC(=O)NCCN(CC)CC` [Compound 68, O,O′-(2-((((2-(diethylamino)ethyl)carbamoyl)oxy)methyl)propane-1,3-diyl) di(heptadecan-9-yl) diadipate], the pKa in data set [1] (read-out: pKa) was found to be 6.4. Further, the “Mean % editing in rat liver” value in the data set with rat TTR gene is 17.1%.

Usually pKa stands for the negative logarithm of the acid dissociation constant.

The record behind these values is patent US20260337153A1, “IONIZABLE AMINE LIPIDS” (Intellia Therapeutics, Inc., priority 2023, published 2026).
